The text below walks through data of patent US6498945B1, “Sonodynamic therapy using an ultrasound sensitizer compound” (Amersham Health AS, priority 1997, dated 2002).

“Also recorded” adds a separate entry of the source. Where two headings read alike, the source gives them in different places.

The conditions of series [1]: cited from earlier work.
The test system of series [2] is HT-29 tumors. Briefly: Biodistribution / tumor localization in immunodeficient mice with HT-29 tumors. The conditions noted are these: female immunodeficient mice with HT-29 tumors.
Description: (§1) FIG. 2A is a graph of comparative biodistribution data of contrast agent Polymer 3 (NC100448) versus indocyanine green as control in female immunodeficient mice containing HT-29 tumors at one hour post intravenous injection of phosphate buffered saline solutions of each.
(§2) FIG. 2B is a graph of comparative biodistribution data of contrast agent Polymer 3 (NC100448) versus indocyanine green as control in female immunodeficient mice containing HT-29 tumors at three hours post intravenous injection of phosphate buffered saline solutions of each.
Series [3] relates to leucocytes (white blood cells). Description: Fate in dog blood (confocal scanning microscope, flow cytometry). Type of series: in vivo. Particulars: injected into beagle dogs; flow cytometry and fluorescence microscopy.
The test system of series [4] is HT-29 tumors. Particulars: mouse, in vivo.
Description: as §1, §2
The target in series [5] is STa receptor (Homo sapiens, UniProt P25092). Briefly: Competitive inhibition of the STa receptor. It is filed as binding. The protocol: Isolation and purification were done using the same HPLC conditions yielding about 0.1 mg yellow product. Ultra violet maxima in 1/1 water/methanol 10 mM ammonium acetate were: 202 nm (a 0.822), 277 nm (a 0.096), 457 nm (a 0.096), 482 nm (a 0.107). Mass spectrum (electrospray, negative): M−H 2359; M+Na 2381; theoretical M 2360.
Chain of STa receptor (P25092 24-1073, species assumed): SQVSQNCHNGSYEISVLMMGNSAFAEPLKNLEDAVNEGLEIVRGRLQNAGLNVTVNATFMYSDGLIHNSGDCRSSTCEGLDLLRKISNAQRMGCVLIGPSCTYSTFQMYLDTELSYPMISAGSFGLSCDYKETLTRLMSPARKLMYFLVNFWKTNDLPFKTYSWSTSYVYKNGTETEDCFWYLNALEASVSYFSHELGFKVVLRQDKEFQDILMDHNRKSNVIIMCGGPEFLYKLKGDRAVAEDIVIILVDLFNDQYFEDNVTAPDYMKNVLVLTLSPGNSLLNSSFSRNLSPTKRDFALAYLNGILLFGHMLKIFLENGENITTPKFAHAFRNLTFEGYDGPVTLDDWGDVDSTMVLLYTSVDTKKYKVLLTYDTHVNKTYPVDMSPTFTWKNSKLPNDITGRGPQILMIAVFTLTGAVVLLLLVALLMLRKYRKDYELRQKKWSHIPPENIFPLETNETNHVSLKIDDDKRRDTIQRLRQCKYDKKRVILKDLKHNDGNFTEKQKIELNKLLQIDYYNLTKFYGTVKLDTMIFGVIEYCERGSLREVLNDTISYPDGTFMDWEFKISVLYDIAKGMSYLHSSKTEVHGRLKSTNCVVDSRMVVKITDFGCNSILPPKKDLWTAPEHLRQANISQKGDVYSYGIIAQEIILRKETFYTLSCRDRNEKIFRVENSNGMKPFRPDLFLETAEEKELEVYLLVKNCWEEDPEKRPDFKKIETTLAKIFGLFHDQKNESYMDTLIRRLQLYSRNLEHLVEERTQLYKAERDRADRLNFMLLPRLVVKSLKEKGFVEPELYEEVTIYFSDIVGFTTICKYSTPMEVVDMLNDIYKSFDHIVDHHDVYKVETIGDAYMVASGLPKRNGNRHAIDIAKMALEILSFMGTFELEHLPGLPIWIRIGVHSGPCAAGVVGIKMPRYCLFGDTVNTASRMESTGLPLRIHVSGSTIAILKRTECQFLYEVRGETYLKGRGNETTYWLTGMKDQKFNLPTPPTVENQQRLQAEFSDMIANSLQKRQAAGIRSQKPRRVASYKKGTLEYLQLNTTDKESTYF

Series [6] relates to HL-60 human peripheral blood promyelocytic leukemia cells. Description: Sonication of HL-60 cell suspensions in vitro, cell death by Trypan Blue and LDH. Type of series: cell-based. Particulars: 148 nanomoles/ml, insonated 60 and 120 seconds, 65 volts, 47 kHz bath. The protocol:
HL-60 human peripheral blood promyelocytic leukemia cells (American Type Culture Collection, Rockville, Md.) were grown at 37° C. in a 5% CO2/air atmosphere, in a 1:1 mixture of DMEM and IMEM fortified with 10% fetal bovine serum. Before use, the cells were centrifuged (5 min. at 1500 rpm), washed with phosphate buffered saline (PBS), and then resuspended in PBS, the volume being adjusted to provide cell suspensions containing […]. These were stored in crushed ice until used.
Viability was assessed by staining with Trypan Blue dye. 50 μl of the suspension were mixed with […] Trypan Blue solution (0.4%, Sigma), and the cell concentration counted using a Neubauer-type hemocytometer. Four or five large squares were counted, the blue (dead) cells being counted separately from the unstained (live) cells, and the results averaged. […]
For insonation, the voltage was set to the required value, the power was turned on, and the sample exposed for the required amount of time (secs.). Viability was again assessed with Trypan Blue, the samples were then centrifuged for 5 minutes at 2000 rpm, and a sample of cell free supernatant liquid taken for lactate dehydrogenase (LDH) measurement. […] The LDH was measured by a standard procedure using a Beckman Synchron CX5CE Instrument, the results were measured in IU/l, and afforded a quantitative measurement of cell death in the samples. […]

On to `CCOC(=O)c1c(I)c(NS(=O)(=O)c2cccc3c(N(C)C)cccc23)c(I)c(N(CC)C(C)=O)c1I` [Example 52, Ethyl 3-(N-Acetyl-N-ethylamino)-5-[(5-dimethylamino-1-naphthylsulfonyl)amino]-2,4,6-triiodobenzoate], for which the melting point is 238 to 240 °C.

As for `Oc1ccc2ccccc2c1N=Nc1ccc(N=Nc2ccccc2)cc1` [Sudan III], the “solubility in sesame oil” value in series [1] (sesame oil) is reported as “soluble in sesame oil”. For the same compound, the solubility in water result in series [1] (water) was “very insoluble in water”.

`CC1(C)C(/C=C/C=C/C=C/C=C2\N(CCCCS(=O)(=O)O)c3ccc4ccccc4c3C2(C)C)=[N+](CCCCS(=O)(=O)[O-])c2ccc3ccccc3c21` [indocyanine green]: the “detection in the tumor (FIG. 2A)” value in series [2] (one hour post intravenous injection, PBS solution) is given as “negligibly detected”. For the same compound, the “detection in the tumor (FIG. 2B)” value in series [2] (three hours post intravenous injection, PBS solution) is on record as “negligibly detected”.

Take “Air-exposed-Tetronic-908-conjugated-to-fluorescein Isothiocyanate”: the “binding to blood cells” value in series [3] is reported as “binds to a specific cell class within the blood; also recorded: attached to leucocytes (white blood cells)”.

ClAlPc(SO2NHPEG5000)4 [Example 45]: the “injected dose localized in the tumor after one hour” value (“injected dose localized” below) in series [4] is reported as 2.5 % of the injected dose.

On to “Thiourea Linked 5-fluorescein to STa (syn. 2) [Example 79]”, for which the “competitive inhibitor of the STa receptor” value in series [5] is given as “tested positive”.

Regarding “[Melamine][SO2ClAlPc(SO3H)3]3 [Example 46]”, in series [4], the “injected dose localized” value is reported as 0.1 % of the injected dose.

Turning to “[NH(PEG3400)NHSO2PcAlCl(SO3H)2SO2]n [Example 43]”, the “injected dose localized” value in series [4] is 4 % of the injected dose.

As for “bisthioether 2:1 dye:polymer reaction product between 2-[2-[2-chloro-3-[[1,3-dihydro-1,1,-dimethyl-3-(3-sulfopropyl)-2H-benz[e]indol-2-ylidene]ethylidene]-5-(ethoxycarbonyl)-1-cyclohexen-1-yl]ethenyl]-1,1-dimethyl-3-(3-sulfopropyl)-1H-benz[e]indolium, inner salt, sodium salt and disodium PEG3,400-α,ω-dithiolate [Polymer 3]”, in series [4], the “concentration in the blood at three hours relative to one hour” value is listed as “decreased” and the “concentration in the tumor at three hours relative to one hour” value was “increased”. Further, in series [4] (iv), the “detection in the tumor (FIG. 2A)” value is given as “detected in the tumor” and the “detection in the tumor (FIG. 2B)” value is listed as “detected in the tumor”.

On to “chloroaluminum phthalocyanine tetrasulfonate”, for which the “cell killing under ultrasound (FIG. 1)” value in series [6] is listed as “Enhancement of Cell Killing”.

For “copolymer of PEG3400-α,ω-diamine and aluminum(III)phthalocyanine tetrasulfonyl chloride [Example 1]”, the “injected dose localized” value in series [2] (solution in phosphate buffered saline injected, one hour) is listed as 4 % of the injected dose.

Turning to “copolymer of PEG 5000-α,ω-diamine and aluminum(III)phthalocyanine tetrasulfonyl chloride [Example 4]”, the “injected dose localized” value in series [4] was 2.5 % of the injected dose.

For the compound “copolymer of melamine and aluminum(III)phthalocyanine tetrasulfonyl chloride [Example 5]”, the “injected dose localized” value in series [4] is recorded as 0.1 % of the injected dose.

One may read the melting point as the temperature, or range, at which the solid turns liquid.
